Patent publication US20230381170A1, “METHOD FOR TREATING ALS/FTD THROUGH DEGRADATION OF RNA REPEAT EXPANSION” (University of Florida Research Foundation, Incorporated, priority 2020, published 2023)

Test system: (G4C2)66-No ATG-GFP mRNA
Test: Polysome profiling in HEK293T cells
Type: cell-based, human
Conditions: 200 nM
Procedure: Polysome Profiling. Polysome profiling studies were completed similarly to previously described methods (12, 30) Yang et al., 2015). Briefly, 100 mm dishes were plated with ˜3.5×10^6 HEK293T cells and batch-transfected for 5 h with 2.5 μg (G4C2)66-No ATG-GFP using Lipofectamine 3000 reagent according to manufacturer protocol. Then, cells were collected and plated overnight in 100 mm dishes with ˜2.5×10^6 HEK293T cells and treated with vehicle (DMSO, 0.5% final concentration) or 3 (200 nM). Upon 24 h treatment, cells were treated with cycloheximide (CHX, 0.1 mg/mL) and incubated for 5 min at 37° C. The medium was removed, and cells were washed by 2×7.5 mL ice cold DPBS supplemented with 0.1 mg/mL CHX. Cells were then lysed with 250 μL of ice-cold Cell Lysis Buffer [10 mM NaCl, 10 mM MgCl2, 10 mM Tris, pH 7.5, 1% Triton X-100, 1% sodium deoxycholate, 1 mM DTT supplemented with […] cycloheximide, and 0.2 U/μL RNAsin (Promega)]. The lysate obtained from 3×100 mm dishes were combined (˜500 μL final volume) and transferred to an Eppendorf tube, passed through a 21G needle several times and centrifuged for 5 min at 13,200 rpm and 4° C. The supernatant was transferred to a new tube and stored at −80° C. until further use. Cell lysates were then loaded on 10-50% sucrose gradients (prepared in 20 mM HEPES, pH 7.4, 100 mM KCl, 5 mM MgCl2, 3 mM DTT, and 0.1 mg/mL CHX) and separated at 40000 rpm for 2 h at 4° C. […] The levels of (G4C2)66-No ATG-GFP mRNA in each fraction were measured by qPCR as described above with primers specific for GFP (non-canonical translation), GAPDH, respectively (canonical translation) (Table 1). Data from vehicle- and compound-treated samples were normalized as follows: triplicate Ct values were averaged and ΔCt values were calculated; ΔΔCt values were afforded by comparing treated to untreated ΔCt values. […]

## Cc1c2ccncc2c(C)c2c1[nH]c1ccc(OCCOCCOCCNCCOCCOCCOc3ccc4[nH]c5c(C)c6ccncc6c(C)c5c4c3)cc12 [Compound 3]
  increase of transcript abundance in low-molecular-weight (LMW) fractions: 17±1%
  polysome loading of GAPDH (control transcript): no effect
  reduction of transcript loaded into high-molecular-weight (HMW) polysome fractions: 22±2%
